Laboratory results taken from ChEMBL document CHEMBL1201862, “PubChem BioAssay data set” (2004).
Where “and” joins values, the source holds several entries; their conditions need not be identical. Equal entries are not always repeated. Calls of active or inactive are those of the source.

Experiments:
[1] = target: T1, Serine/threonine-protein phosphatase (Homo sapiens, UniProt Q9BPW0); test: Counterscreen for inhibitors of PP1: fluorescence-based biochemical high throughput dose response assay to identify inhibitors of Protein Phosphatase 5 (PP5). [Related pubchem assays: 2034 (Summary (PP5 inhibitors)), 1987 (PP5 inhibitors in singlate), 2235 (PP1 inhibitors in singlate)]
T1 sequence (Q9BPW0 whole entry): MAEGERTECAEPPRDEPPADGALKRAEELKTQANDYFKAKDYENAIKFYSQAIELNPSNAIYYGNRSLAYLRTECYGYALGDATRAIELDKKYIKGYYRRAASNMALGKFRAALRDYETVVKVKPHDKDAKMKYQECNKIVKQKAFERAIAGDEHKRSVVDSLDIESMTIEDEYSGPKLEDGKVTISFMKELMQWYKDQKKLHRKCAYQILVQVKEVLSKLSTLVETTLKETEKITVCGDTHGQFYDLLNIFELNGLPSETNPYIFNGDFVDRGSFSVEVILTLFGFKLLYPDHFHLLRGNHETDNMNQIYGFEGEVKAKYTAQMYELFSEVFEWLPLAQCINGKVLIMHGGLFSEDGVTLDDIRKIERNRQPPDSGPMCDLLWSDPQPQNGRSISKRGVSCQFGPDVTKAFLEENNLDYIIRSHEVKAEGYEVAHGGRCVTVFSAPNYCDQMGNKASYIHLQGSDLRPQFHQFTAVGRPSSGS

INS1 = test: beta cell apoptosis inhibitors, cytokine rescue, dose response, luminescence, retest (AID 449756); type: functional, cell-based; conditions: Rattus norvegicus;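 further: cell death triggered by IL-1 beta plus TNF-alpha plus IFN-gamma mixture; protective hits raise ATP signal compared with cytokine alone wells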
[2] = target: Serine/threonine-protein phosphatase PP1-alpha catalytic subunit (Homo sapiens, UniProt P62136); test: PP1 phosphatase inhibitors, dose response, biochemical, fluorescence (AID 2403);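 further: phosphatase turnover of OMFP into fluorescent 3-O-methylfluorescein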
[3] = Counterscreen for IDE inhibitors: Luminescence-based cell-based high throughput dose response assay to identify compounds that are cytotoxic to HEK cells. [Related pubchem assays: 434962 (Primary screen (IDE inhibitors in singlicate)), 449730 (Counterscreen (Cytotoxicity in triplicate)), 435028 (Confirmation (IDE inhibitors in triplicate)) …; type: functional; conditions: HEK293
Insulin-degrading enzyme = target: T2, Insulin-degrading enzyme (Homo sapiens, UniProt P14735); test: Dose Response: Fluorescence polarization-based cell-based high throughput dose response assay for inhibitors of insulin-degrading enzyme (IDE). [Related pubchem assays: 434962 (Primary screen (IDE inhibitors in singlicate)), 449730 (Counterscreen (Cytotoxicity in triplicate)), 435028 (Confirmation (IDE inhibitors in triplicate)), 434984 (Summary …; type: functional
T2 sequence (P14735 whole entry): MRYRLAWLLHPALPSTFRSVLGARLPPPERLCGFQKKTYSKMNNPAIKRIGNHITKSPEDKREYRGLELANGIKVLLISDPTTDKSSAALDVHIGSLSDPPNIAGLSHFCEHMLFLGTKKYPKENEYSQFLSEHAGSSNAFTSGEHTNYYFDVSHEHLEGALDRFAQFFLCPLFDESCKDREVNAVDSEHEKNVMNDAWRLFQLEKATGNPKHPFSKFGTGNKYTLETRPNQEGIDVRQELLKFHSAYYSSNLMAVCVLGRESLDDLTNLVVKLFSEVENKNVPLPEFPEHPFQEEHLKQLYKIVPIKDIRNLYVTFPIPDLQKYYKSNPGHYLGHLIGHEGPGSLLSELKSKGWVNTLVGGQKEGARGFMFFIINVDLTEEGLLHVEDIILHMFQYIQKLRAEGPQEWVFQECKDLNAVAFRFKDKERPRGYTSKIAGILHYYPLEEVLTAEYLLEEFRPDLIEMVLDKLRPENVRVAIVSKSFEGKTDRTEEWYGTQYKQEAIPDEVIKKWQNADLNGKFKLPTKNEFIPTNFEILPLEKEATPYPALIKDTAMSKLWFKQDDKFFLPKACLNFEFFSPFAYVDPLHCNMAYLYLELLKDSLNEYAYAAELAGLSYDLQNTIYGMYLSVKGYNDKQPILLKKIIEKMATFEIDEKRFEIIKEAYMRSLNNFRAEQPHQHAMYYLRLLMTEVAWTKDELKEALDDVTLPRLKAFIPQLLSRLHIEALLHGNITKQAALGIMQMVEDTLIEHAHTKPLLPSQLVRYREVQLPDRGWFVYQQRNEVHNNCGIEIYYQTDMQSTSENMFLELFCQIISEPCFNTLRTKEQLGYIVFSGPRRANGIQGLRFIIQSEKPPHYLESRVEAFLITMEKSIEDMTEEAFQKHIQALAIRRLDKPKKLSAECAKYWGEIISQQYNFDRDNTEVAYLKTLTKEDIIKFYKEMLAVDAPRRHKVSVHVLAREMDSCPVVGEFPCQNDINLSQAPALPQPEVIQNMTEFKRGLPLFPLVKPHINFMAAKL

[4] = target: T3, Voltage-gated N-type calcium channel alpha-1B subunit/Amyloid beta A4 precursor protein-binding family A member 1 (Homo sapiens, UniProt Q00975+Q02410); type: protein assay
Leucine aminopeptidase = target: T4, Leucine aminopeptidase (Plasmodium falciparum 3D7, UniProt Q8IL11); test: P. falciparum M17LAP inhibitors, primary screen, biochemical, fluorogenic H-Leu-NHMec substrate, 1536-well (AID 1619); type: functional
T4 sequence (Q8IL11 whole entry): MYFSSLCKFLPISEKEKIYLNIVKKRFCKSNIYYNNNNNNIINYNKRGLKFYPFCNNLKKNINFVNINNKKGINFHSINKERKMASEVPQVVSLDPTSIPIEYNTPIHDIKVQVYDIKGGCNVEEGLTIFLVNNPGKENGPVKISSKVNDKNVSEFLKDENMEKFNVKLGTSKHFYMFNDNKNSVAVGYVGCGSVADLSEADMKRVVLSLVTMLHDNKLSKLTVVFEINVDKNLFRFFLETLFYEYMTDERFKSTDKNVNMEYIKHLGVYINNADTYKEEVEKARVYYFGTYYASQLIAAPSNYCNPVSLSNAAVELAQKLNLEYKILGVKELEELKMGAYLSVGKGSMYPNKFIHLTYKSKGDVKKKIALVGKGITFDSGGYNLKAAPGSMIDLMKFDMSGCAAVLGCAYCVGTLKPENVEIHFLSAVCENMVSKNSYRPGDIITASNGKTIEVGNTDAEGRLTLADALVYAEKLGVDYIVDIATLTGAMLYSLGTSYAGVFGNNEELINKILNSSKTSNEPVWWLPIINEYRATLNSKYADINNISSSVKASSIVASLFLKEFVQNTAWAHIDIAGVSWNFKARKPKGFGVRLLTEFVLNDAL

Nonstructural protein 1 = Nonstructural protein 1 (Influenza A virus, UniProt Q194T2); type: functional, Influenza A virus (A/California/07/2009(H1N1))
[5] = target: T3, Voltage-gated N-type calcium channel alpha-1B subunit/Amyloid beta A4 precursor protein-binding family A member 1; type: protein assay; remark: listed apart in the source
[6] = microbe, parasite or virus in culture; type: functional; conditions: Mycobacterium tuberculosis
[7] = target: T5, Replicative DNA helicase DnaB (Mycobacterium tuberculosis, UniProt P9WMR3); test: DnaB intein splicing inhibitors, dose response, biochemical, cell-free fluorescence (AID 449749); type: functional
T5 sequence (P9WMR3 whole entry): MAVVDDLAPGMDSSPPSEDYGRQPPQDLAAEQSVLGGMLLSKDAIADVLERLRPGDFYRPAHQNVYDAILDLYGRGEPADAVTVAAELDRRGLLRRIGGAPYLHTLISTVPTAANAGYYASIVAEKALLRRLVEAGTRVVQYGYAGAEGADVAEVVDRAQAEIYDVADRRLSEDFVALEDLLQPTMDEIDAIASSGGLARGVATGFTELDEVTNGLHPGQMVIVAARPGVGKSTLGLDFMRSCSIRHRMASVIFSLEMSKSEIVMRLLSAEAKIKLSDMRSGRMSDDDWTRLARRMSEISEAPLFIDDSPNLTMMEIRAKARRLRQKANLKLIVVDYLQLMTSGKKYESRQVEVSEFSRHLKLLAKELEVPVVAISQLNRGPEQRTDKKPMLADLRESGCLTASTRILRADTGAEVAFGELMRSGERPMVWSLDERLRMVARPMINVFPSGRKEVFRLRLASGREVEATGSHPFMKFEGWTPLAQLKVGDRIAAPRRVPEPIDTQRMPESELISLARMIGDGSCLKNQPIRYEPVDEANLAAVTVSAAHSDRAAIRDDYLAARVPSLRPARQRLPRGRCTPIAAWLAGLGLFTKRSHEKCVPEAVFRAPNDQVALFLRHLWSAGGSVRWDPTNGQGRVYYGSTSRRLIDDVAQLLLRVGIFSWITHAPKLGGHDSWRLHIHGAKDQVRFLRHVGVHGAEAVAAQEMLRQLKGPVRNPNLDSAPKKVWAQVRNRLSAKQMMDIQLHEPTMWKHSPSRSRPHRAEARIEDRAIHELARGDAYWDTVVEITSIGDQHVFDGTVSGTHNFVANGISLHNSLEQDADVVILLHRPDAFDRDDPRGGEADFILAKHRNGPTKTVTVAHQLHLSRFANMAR

[8] = target: Eukaryotic translation initiation factor 4E (Mus musculus, UniProt P63073); test: eIF4E–eIF4G protein interaction inhibitors, dose response, biochemical, TR-FRET (AID 855); type: functional;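 further: potency for disrupting eIF4E binding to eIF4GI seen as loss of FRET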
Beta-galactosidase [9] = target: T6, Beta-galactosidase (Escherichia coli, UniProt Q8VNN2); test: beta-galactosidase enzyme inhibitors and activators, dose response, artefact control for CCR6 antagonist project, biochemical, E. coli enzyme, set 3 (AID 504712); type: functional
[10] = HIV-1 Env-mediated cell fusion inhibitors, dose response, CCR5-tropic Env (AID 2279); type: functional
[11] = target: G-protein coupled receptor 55 (Homo sapiens, UniProt Q9Y2T6); test: GPR55 antagonists blocking LPI-driven arrestin recruitment, primary screen, imaging, U2OS, beta-arrestin-GFP, LPI agonist (AID 2013); type: functional;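 further: antagonist potency measured as reduced agonist-driven arrestin aggregation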
Protein RecA = target: T7, Protein RecA (Mycobacterium tuberculosis, UniProt P9WHJ3); test: Fluorescence Cell-Free Homogeneous Dose Retest to Identify Inhibitors of RecA-Intein Splicing Activity. [Related pubchem assays (depositor defined):AID2097, AID2223, AID489010, AID492950]; type: functional
T7 sequence (P9WHJ3 whole entry): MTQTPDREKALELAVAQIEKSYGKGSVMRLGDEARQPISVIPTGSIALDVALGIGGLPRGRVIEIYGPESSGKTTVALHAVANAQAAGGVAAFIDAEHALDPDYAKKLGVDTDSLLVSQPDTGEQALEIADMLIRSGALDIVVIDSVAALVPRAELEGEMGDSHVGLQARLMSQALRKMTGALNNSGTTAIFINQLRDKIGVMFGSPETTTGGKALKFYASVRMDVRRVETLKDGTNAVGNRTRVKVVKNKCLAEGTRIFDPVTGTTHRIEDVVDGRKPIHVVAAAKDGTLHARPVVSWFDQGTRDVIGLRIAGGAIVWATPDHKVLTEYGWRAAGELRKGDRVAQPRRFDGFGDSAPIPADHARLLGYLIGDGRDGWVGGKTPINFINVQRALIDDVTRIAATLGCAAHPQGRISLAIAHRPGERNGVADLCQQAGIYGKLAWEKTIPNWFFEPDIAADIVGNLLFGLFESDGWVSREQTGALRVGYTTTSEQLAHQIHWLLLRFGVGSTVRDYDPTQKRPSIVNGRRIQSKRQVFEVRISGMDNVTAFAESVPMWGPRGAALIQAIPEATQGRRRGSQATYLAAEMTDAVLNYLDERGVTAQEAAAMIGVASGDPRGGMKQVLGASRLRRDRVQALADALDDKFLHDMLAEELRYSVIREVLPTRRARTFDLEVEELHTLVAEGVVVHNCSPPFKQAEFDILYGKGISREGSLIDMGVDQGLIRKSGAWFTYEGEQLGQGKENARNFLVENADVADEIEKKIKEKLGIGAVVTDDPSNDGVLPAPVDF

[12] = target: Induced myeloid leukemia cell differentiation protein Mcl-1 (Homo sapiens, UniProt Q07820); type: functional
Beta-galactosidase [13] = target: T6, Beta-galactosidase; test: PubChem AID 485352; type: functional
[14] = target: T8, Type-1 angiotensin II receptor (Homo sapiens, UniProt P30556); test: AT1 receptor antagonists, dose response, selectivity assay for APJ receptor antagonist project, cell-based, uHTS hits (AID 463214); type: functional;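 further: antagonist potency against angiotensin II stimulated AT1 response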
T8 sequence (P30556 whole entry): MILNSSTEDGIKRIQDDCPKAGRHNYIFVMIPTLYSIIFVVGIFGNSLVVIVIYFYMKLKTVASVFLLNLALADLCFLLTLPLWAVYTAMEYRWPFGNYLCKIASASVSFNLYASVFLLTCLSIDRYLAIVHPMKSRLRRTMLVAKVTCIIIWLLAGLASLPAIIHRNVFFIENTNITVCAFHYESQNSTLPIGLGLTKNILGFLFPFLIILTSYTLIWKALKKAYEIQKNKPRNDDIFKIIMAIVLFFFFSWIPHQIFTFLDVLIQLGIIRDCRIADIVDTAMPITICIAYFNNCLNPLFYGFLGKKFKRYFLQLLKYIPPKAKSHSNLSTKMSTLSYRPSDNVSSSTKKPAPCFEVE

[15] = enhancers of respiration in Yfh1-depleted yeast, dose response, Friedreich's ataxia, plus single-dose screen (AID 1465); type: functional;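 further: yeast depleted of Yfh1p frataxin homolog grown on glycerol needing respiration; WST-1 tetrazolium dye reduction as measure of cellular dehydrogenase metabolic activity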

T3 sequence (Q00975 whole entry): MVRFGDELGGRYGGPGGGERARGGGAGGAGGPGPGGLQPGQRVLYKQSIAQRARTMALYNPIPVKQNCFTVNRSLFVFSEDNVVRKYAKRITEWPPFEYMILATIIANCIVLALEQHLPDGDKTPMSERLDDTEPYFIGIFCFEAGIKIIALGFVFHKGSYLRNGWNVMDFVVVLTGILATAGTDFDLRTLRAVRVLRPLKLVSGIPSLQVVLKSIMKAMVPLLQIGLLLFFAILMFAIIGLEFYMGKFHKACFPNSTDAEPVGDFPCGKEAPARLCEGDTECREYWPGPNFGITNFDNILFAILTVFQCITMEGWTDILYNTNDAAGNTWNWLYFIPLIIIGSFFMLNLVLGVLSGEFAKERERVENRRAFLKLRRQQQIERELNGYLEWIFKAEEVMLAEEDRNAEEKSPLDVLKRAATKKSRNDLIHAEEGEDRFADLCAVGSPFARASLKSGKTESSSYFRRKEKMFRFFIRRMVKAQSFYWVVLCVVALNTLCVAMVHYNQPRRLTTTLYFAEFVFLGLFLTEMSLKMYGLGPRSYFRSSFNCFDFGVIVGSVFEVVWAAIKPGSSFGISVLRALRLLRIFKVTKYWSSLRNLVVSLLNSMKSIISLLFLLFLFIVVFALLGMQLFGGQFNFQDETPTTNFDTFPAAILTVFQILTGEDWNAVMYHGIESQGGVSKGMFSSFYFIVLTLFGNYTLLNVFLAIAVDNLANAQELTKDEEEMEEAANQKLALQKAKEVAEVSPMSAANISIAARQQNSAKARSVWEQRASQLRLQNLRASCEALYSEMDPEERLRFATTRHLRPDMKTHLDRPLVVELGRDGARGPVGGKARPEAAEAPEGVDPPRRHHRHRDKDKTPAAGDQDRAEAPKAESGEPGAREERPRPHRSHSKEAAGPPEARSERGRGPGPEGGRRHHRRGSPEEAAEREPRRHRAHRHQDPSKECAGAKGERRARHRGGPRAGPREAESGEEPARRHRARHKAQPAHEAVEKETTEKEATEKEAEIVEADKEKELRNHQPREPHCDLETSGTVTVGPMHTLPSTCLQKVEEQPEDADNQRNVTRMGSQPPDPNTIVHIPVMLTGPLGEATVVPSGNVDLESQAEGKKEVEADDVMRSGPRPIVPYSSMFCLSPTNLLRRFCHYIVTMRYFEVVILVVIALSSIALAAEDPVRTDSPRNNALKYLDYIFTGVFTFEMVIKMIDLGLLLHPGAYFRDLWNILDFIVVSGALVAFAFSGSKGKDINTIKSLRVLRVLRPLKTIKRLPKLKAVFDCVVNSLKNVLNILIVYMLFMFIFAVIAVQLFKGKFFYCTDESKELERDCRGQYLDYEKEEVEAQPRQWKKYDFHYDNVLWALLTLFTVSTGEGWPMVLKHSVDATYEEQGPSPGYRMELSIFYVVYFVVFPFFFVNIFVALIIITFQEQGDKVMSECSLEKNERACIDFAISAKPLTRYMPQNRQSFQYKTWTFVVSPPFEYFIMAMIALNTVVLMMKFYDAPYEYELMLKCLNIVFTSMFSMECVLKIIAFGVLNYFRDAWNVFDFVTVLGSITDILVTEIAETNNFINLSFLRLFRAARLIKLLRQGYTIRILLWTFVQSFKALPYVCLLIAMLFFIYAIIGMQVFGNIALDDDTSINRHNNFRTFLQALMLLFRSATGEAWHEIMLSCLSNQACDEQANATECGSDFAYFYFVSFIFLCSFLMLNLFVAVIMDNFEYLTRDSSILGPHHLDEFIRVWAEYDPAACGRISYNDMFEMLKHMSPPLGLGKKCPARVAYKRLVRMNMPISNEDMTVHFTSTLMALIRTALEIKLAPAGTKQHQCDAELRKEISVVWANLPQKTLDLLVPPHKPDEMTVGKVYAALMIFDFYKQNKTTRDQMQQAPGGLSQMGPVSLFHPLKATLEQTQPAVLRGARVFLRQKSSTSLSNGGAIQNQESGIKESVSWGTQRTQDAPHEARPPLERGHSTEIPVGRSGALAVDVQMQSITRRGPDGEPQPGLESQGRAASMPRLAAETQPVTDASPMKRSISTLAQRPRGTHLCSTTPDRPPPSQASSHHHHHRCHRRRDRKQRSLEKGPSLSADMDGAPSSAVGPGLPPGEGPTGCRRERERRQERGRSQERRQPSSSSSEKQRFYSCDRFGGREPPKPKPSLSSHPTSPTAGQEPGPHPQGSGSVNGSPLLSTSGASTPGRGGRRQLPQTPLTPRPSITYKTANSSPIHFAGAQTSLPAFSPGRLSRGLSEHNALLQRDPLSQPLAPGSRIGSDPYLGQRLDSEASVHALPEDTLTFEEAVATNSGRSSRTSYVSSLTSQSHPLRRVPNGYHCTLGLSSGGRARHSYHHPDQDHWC
T3 sequence (Q02410 whole entry): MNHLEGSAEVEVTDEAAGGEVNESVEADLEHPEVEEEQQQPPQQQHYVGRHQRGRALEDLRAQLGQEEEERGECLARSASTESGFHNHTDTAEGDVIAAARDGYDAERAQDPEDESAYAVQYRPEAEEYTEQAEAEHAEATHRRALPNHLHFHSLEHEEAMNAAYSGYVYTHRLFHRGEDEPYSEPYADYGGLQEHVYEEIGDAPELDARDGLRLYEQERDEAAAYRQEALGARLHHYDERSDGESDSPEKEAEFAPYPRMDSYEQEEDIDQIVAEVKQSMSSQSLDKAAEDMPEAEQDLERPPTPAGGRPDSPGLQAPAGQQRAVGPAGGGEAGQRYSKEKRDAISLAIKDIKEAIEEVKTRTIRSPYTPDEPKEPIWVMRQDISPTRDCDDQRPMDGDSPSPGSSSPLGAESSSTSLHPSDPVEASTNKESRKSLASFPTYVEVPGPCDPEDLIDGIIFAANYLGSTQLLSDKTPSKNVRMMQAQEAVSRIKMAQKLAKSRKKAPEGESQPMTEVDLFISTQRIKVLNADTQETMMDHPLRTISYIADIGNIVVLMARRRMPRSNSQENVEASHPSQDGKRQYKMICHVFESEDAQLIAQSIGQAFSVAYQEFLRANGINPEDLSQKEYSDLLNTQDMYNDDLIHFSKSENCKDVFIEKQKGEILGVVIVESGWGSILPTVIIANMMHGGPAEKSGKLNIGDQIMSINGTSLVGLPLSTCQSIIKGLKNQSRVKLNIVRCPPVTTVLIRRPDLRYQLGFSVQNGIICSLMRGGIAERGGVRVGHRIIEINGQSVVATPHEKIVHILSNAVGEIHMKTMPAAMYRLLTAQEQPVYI
T6 sequence (Q8VNN2 whole entry, the tested form may be a part): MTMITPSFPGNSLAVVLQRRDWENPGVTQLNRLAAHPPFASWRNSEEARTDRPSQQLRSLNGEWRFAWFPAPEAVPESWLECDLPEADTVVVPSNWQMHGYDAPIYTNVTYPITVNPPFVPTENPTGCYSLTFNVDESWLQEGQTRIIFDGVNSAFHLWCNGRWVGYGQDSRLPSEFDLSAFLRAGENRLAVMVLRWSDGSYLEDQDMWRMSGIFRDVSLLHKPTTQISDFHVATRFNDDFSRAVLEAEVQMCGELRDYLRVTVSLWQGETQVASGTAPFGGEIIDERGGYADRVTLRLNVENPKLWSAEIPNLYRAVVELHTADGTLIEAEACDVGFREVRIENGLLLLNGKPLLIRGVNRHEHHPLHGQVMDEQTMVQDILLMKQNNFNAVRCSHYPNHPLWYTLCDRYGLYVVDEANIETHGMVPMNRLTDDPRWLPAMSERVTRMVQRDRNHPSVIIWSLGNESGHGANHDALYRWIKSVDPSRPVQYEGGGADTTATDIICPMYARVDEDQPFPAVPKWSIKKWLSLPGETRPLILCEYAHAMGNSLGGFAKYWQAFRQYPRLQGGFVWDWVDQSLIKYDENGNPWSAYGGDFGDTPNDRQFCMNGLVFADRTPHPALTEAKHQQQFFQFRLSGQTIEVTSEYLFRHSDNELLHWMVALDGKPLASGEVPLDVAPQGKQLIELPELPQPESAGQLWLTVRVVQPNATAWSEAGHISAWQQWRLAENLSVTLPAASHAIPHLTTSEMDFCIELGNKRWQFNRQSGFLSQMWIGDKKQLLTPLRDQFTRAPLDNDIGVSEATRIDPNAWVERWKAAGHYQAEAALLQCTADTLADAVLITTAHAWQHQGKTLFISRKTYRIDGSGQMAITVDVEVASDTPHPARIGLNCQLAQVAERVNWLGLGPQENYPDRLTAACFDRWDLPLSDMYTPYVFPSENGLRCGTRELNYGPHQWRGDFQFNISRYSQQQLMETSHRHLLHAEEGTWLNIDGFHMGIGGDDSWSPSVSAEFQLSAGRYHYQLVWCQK
Chain of Eukaryotic translation initiation factor 4E (P63073 whole entry): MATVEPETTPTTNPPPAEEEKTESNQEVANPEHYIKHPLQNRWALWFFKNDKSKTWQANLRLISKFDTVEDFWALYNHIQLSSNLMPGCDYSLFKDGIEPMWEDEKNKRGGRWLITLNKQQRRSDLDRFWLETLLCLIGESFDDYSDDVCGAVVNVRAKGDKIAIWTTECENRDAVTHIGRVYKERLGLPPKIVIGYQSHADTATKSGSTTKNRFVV
Chain of Serine/threonine-protein phosphatase PP1-alpha catalytic subunit (P62136 whole entry): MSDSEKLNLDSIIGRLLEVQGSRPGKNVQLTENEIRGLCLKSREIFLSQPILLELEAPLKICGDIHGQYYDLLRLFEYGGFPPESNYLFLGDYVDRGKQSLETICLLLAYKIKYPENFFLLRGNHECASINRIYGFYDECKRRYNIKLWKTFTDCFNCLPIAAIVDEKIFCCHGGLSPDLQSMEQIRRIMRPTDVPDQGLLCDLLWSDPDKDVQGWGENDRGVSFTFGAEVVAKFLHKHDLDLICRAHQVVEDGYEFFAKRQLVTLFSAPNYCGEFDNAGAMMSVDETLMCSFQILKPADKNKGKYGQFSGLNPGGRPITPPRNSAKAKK
Chain of Nonstructural protein 1 (Q194T2 whole entry): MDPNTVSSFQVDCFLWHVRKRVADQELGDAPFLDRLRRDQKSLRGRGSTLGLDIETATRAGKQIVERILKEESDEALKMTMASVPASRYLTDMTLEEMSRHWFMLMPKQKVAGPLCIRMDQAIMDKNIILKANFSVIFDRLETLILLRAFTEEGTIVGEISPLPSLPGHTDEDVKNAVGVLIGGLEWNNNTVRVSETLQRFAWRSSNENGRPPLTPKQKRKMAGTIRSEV

For `COc1cnc(-c2ccccn2)nc1Sc1ccc(C)cc1`, the IC50 [1] was > 67 µM (not active), the AC50 (INS1) was 5.03 µM (active) and the IC50 [2] was 6.95 µM (active).

For `Cc1c(OC(C)C(=O)NCc2ccncc2)ccc2c3c(c(=O)oc12)CCCC3` (stereo unspecified), the IC50 [3] was 15.5 µM (not active) and the IC50 (Insulin-degrading enzyme) was > 55.9 µM (not active).

In the case of `O=C(O)c1ccc(N2C(=O)/C(=C/c3ccc(-c4ccc([N+](=O)[O-])cc4)o3)C=C2c2ccccc2)cc1`, the IC50 [4] was 5.56 µM (active), the IC50 (Leucine aminopeptidase) was 21.4 µM (active) and the IC50 (Nonstructural protein 1) was 6.04 µM (active). The IC50 [5] was > 50 µM (inactive), the CC50 [6] was 15.8 µM (active) and the AC50 [7] was 56.7 µM (active). The IC50 [8] was 9.86 µM (active) and 3.93 µM (active), the IC50 (Beta-galactosidase [9]) was 33.8 µM (active) and the IC50 [10] was > 50 µM (active). For the same compound, the IC50 [11] was < 0.5 µM (active), the EC50 (Protein RecA) was > 380 µM (inactive) and the IC50 [12] was 0.417 µM (active).

In the case of `Cc1ccc(N/N=C2/C(=O)Nn3c2nc(C)cc3=O)cc1`, the IC50 (Leucine aminopeptidase) was 86.1 µM (active), the EC50 (Beta-galactosidase [13]) was > 40 µM (inactive) and the IC50 [14] was > 40 µM (not active). The EC50 [15] was > 100 µM (active).
